Where two headings read alike, the source gives them in different places.
Molecular target: PARP1 (poly ADP-ribose polymerase 1) (Homo sapiens, UniProt P09874)
Assay: PARP1 enzymatic ELISA (histone-coated plates, biotinylated NAD+, HRP luminescence)
Type: biochemical

Chain of PARP1 (poly ADP-ribose polymerase 1) (P09874 2-1014): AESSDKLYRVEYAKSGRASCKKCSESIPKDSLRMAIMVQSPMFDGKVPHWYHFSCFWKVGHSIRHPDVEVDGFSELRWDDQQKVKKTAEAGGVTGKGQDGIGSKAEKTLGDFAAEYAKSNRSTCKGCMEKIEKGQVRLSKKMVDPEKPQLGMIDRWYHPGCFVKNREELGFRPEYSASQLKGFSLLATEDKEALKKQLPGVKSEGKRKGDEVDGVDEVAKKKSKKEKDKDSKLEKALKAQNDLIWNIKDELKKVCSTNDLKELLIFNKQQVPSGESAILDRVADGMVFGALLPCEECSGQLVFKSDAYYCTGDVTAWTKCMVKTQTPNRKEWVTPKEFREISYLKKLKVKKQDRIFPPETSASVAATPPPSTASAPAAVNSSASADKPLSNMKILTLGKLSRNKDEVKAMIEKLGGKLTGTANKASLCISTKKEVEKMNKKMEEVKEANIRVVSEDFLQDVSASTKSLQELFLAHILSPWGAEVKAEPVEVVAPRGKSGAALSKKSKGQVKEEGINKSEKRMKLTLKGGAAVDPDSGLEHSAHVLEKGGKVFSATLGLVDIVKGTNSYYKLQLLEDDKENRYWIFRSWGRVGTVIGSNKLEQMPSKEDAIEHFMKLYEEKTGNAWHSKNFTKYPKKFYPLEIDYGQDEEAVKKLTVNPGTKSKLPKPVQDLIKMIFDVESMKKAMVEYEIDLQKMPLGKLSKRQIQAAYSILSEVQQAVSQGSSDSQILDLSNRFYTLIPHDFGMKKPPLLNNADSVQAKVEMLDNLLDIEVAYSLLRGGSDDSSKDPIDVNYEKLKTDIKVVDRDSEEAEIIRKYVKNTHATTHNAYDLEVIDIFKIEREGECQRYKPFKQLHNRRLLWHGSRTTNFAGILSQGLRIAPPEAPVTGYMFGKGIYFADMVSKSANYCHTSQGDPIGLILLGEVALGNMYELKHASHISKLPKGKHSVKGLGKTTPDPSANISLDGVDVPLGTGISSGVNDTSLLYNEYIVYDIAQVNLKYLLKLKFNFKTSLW

Row | SMILES | IC50 [µM] | IC50 (read-out: IC50) [µM]
1 | COc1ccc2cc3[n+](cc2c1OC)CCc1cc(O)c(O)cc1-3 [compound 2, demethyleneberberine] | 2 ± 0.8 | –
2 | COc1c2ccoc2nc2c(O)cccc12 [compound 3, 8-hydroxy dictanmnine] | 44.9 ± 8.4 | –
3 | COc1ccc2ccc(=O)oc2c1CC=C(C)C [compound 5, osthol] | 76.5 ± 12.4 | –
4 | COc1ccc2ccc(=O)oc2c1CC(O)C(C)(C)O (stereo not shown) [compound 4, meranzin hydrate] | – | 67.2 ± 7.6

— PMC13284649, “Discovery of the PARP1 Inhibitors from Natural Compounds Using Structure-Based Virtual Screening and Bioactivity Evaluation” (Medicinal Chemistry (Shariqah (United Arab Emirates), 2025)
